Assay results as given in the supplement of paper PMC10307832.

Legend:
Test in all cases: relative viability (nuclei count vs DMSO), 5 days (fraction); higher = more cells survive
[1] = test system: COR-L 105
In short: (§1)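 Values are medians from duplicate plates. Each reflects relative viability, defined as the nuclei count of treated wells over that of vehicle wells. Lung cancer cell lines in 1536-well plates were pin-tool dosed one day after seeding with one drug alone or with a fixed anchor-drug dose plus five library-drug doses (not always all listed) in √10 steps, then fixed, stained and imaged at 4× after 5 days.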

[2] = test system: NCI-H1395
In short: as §1

[3] = test system: EMC-BAC-2
In short: as §1

[4] = test system: H3255
In short: as §1

[5] = test system: NCI-H2126
In short: as §1

[6] = test system: NCI-H2087
In short: as §1

[7] = test system: HOP-62
In short: as §1

[8] = test system: LOU-NH91
In short: as §1

[9] = test system: UMC-11
In short: as §1

[10] = test system: 201T
In short: as §1

[11] = test system: SK-MES-1
In short: as §1

[12] = test system: SW 900
In short: as §1

[13] = test system: BEN
In short: as §1

[14] = test system: NCI-H2170
In short: as §1

[15] = test system: HCC-78
In short: as §1

[16] = test system: LXF-289
In short: as §1

[17] = test system: HARA
In short: as §1

[18] = test system: RERF-LC-KJ
In short: as §1

[19] = test system: LC-2-ad
In short: as §1

[20] = test system: NCI-H650
In short: as §1

[21] = test system: LU99A
In short: as §1

[22] = test system: NCI-H1993
In short: as §1

In the case of `CN1CCN(CCOc2cc(OC3CCOCC3)c3c(Nc4c(Cl)ccc5c4OCO5)ncnc3c2)CC1` [Saracatinib] + Nc1ncn([C@H]2C[C@H](O)[C@@H](CO)O2)c(=O)n1 [Decitabine] (partner 2 µM), the relative viability ([1]; first compound 0.02 µM) is reported as 0.719, the relative viability ([1]; first compound 0.2 µM) is reported as 0.485 and the relative viability ([1]; first compound 0.6325 µM) is reported as 0.635. For the same molecule, the relative viability ([1]; first compound 2 µM) was 0.458, the relative viability ([2]; first compound 0.02 µM) was 0.752 and the relative viability ([2]; first compound 0.2 µM) was 0.753. It also gave a relative viability ([2]; first compound 0.6325 µM) of 0.737, a relative viability ([2]; first compound 2 µM) of 0.635 and a relative viability ([3]; first compound 0.02 µM) of 1.05. For the same molecule, the relative viability ([3]; first compound 0.2 µM) was 0.922, the relative viability ([3]; first compound 0.6325 µM) was 1.02 and the relative viability ([3]; first compound 2 µM) was 0.91. For the same molecule, the relative viability ([4]; first compound 0.02 µM) was 0.605, the relative viability ([4]; first compound 0.2 µM) was 0.587 and the relative viability ([4]; first compound 0.6325 µM) was 0.579. The relative viability ([4]; first compound 2 µM) was 0.209, the relative viability ([5]; first compound 0.02 µM) was 0.61 and the relative viability ([5]; first compound 0.2 µM) was 0.567. For the same molecule, the relative viability ([5]; first compound 0.6325 µM) was 0.551, the relative viability ([5]; first compound 2 µM) was 0.454 and the relative viability ([6]; first compound 0.02 µM) was 0.322. It also gave a relative viability ([6]; first compound 0.2 µM) of 0.226, a relative viability ([6]; first compound 0.6325 µM) of 0.27 and a relative viability ([6]; first compound 2 µM) of 0.293. It also gave a relative viability ([7]; first compound 0.02 µM) of 0.222, a relative viability ([7]; first compound 0.2 µM) of 0.188 and a relative viability ([7]; first compound 0.6325 µM) of 0.197. For the same molecule, the relative viability ([7]; first compound 2 µM) was 0.185, the relative viability ([8]; first compound 0.02 µM) was 0.778 and the relative viability ([8]; first compound 0.2 µM) was 0.665. It also gave a relative viability ([8]; first compound 0.6325 µM) of 0.715, a relative viability ([8]; first compound 2 µM) of 0.641 and a relative viability ([9]; first compound 0.02 µM) of 0.686. It also gave a relative viability ([9]; first compound 0.2 µM) of 0.667, a relative viability ([9]; first compound 0.6325 µM) of 0.453 and a relative viability ([9]; first compound 2 µM) of 0.533. The relative viability ([10]; first compound 0.02 µM) was 0.832, the relative viability ([10]; first compound 0.2 µM) was 0.644 and the relative viability ([10]; first compound 0.6325 µM) was 0.75. It also gave a relative viability ([10]; first compound 2 µM) of 0.71, a relative viability ([11]; first compound 0.02 µM) of 0.353 and a relative viability ([11]; first compound 0.2 µM) of 0.352. The relative viability ([11]; first compound 0.6325 µM) was 0.36, the relative viability ([11]; first compound 2 µM) was 0.203 and the relative viability ([12]; first compound 0.02 µM) was 0.544. It also gave a relative viability ([12]; first compound 0.2 µM) of 0.384, a relative viability ([12]; first compound 0.6325 µM) of 0.399 and a relative viability ([12]; first compound 2 µM) of 0.635. For the same molecule, the relative viability ([13]; first compound 0.02 µM) was 0.834, the relative viability ([13]; first compound 0.2 µM) was 0.778 and the relative viability ([13]; first compound 0.6325 µM) was 0.747. The relative viability ([13]; first compound 2 µM) was 0.628, the relative viability ([14]; first compound 0.02 µM) was 0.453 and the relative viability ([14]; first compound 0.2 µM) was 0.412. It also gave a relative viability ([14]; first compound 0.6325 µM) of 0.452, a relative viability ([14]; first compound 2 µM) of 0.415 and a relative viability ([15]; first compound 0.02 µM) of 0.524. For the same molecule, the relative viability ([15]; first compound 0.6325 µM) was 0.736, the relative viability ([15]; first compound 2 µM) was 0.686 and the relative viability ([16]; first compound 0.02 µM) was 0.327. The relative viability ([16]; first compound 0.2 µM) was 0.314, the relative viability ([16]; first compound 0.6325 µM) was 0.387 and the relative viability ([16]; first compound 2 µM) was 0.36. For the same molecule, the relative viability ([17]; first compound 0.02 µM) was 0.605, the relative viability ([17]; first compound 0.2 µM) was 0.367 and the relative viability ([17]; first compound 0.6325 µM) was 0.465. For the same molecule, the relative viability ([17]; first compound 2 µM) was 0.381, the relative viability ([18]; first compound 0.02 µM) was 0.688 and the relative viability ([18]; first compound 0.2 µM) was 0.657. It also gave a relative viability ([18]; first compound 0.6325 µM) of 0.734, a relative viability ([18]; first compound 2 µM) of 0.722 and a relative viability ([19]; first compound 0.02 µM) of 0.79. It also gave a relative viability ([19]; first compound 0.2 µM) of 0.751, a relative viability ([19]; first compound 0.6325 µM) of 0.779 and a relative viability ([19]; first compound 2 µM) of 0.789. It also gave a relative viability ([20]; first compound 0.02 µM) of 0.319, a relative viability ([20]; first compound 0.2 µM) of 0.3 and a relative viability ([20]; first compound 0.6325 µM) of 0.295. The relative viability ([20]; first compound 2 µM) was 0.288, the relative viability ([21]; first compound 0.02 µM) was 0.857 and the relative viability ([21]; first compound 0.2 µM) was 0.807. It also gave a relative viability ([21]; first compound 0.6325 µM) of 0.678, a relative viability ([21]; first compound 2 µM) of 0.658 and a relative viability ([22]; first compound 0.02 µM) of 0.63. It also gave a relative viability ([22]; first compound 0.2 µM) of 1.43, a relative viability ([22]; first compound 0.6325 µM) of 0.521 and a relative viability ([22]; first compound 2 µM) of 0.556.
